Experimental data as given in PubChem BioAssay (NCI).
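Following 48 hours of exposure in 96-well plates, responses at five concentrations were used to interpolate endpoints linearly. The concentration for 50% growth inhibition is given as GI50. TGI: concentration producing complete growth inhibition.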

Legend:
Assay in all cases: DTP human tumour cell line panel, 48 h
SNB-19 CNS = test system: SNB-19 CNS
OVCAR-8 ovarian = test system: OVCAR-8 ovarian
OVCAR-3 ovarian = test system: OVCAR-3 ovarian
SR leukemia = test system: SR leukemia
LOX IMVI melanoma = test system: LOX IMVI melanoma
SK-MEL-28 melanoma = test system: SK-MEL-28 melanoma
SN12C renal = test system: SN12C renal
MDA-MB-435 = test system: MDA-MB-435
TK-10 renal = test system: TK-10 renal
SK-MEL-5 melanoma = test system: SK-MEL-5 melanoma
MALME-3M melanoma = test system: MALME-3M melanoma
SK-MEL-2 melanoma = test system: SK-MEL-2 melanoma
MDA-MB-468 breast = test system: MDA-MB-468 breast
UACC-257 melanoma = test system: UACC-257 melanoma
NCI-H522 lung = test system: NCI-H522 lung
U251 CNS = test system: U251 CNS
M14 melanoma = test system: M14 melanoma
UO-31 renal = test system: UO-31 renal
PC-3 prostate = test system: PC-3 prostate
SF-268 CNS = test system: SF-268 CNS
HCT-116 colon = test system: HCT-116 colon
HCC-2998 colon = test system: HCC-2998 colon
A498 renal = test system: A498 renal
UACC-62 melanoma = test system: UACC-62 melanoma
DU-145 prostate = test system: DU-145 prostate
COLO 205 colon = test system: COLO 205 colon
HS 578T breast = test system: HS 578T breast
KM12 colon = test system: KM12 colon
OVCAR-5 ovarian = test system: OVCAR-5 ovarian
CAKI-1 renal = test system: CAKI-1 renal
A549 NSCLC = test system: A549 NSCLC
HOP-92 NSCLC = test system: HOP-92 NSCLC
NCI-H23 lung = test system: NCI-H23 lung
RPMI-8226 leukemia = test system: RPMI-8226 leukemia
T-47D breast = test system: T-47D breast
ACHN renal = test system: ACHN renal
IGROV1 ovarian = test system: IGROV1 ovarian
BT-549 breast = test system: BT-549 breast
OVCAR-4 ovarian = test system: OVCAR-4 ovarian
HOP-62 NSCLC = test system: HOP-62 NSCLC
SK-OV-3 ovarian = test system: SK-OV-3 ovarian
RXF 393 renal = test system: RXF 393 renal
HCT-15 colon = test system: HCT-15 colon
EKVX NSCLC = test system: EKVX NSCLC
SW-620 colon = test system: SW-620 colon
SF-295 CNS = test system: SF-295 CNS
HL-60(TB) leukemia = test system: HL-60(TB) leukemia
MDA-MB-231 breast = test system: MDA-MB-231 breast
SNB-75 CNS = test system: SNB-75 CNS
NCI-H226 lung = test system: NCI-H226 lung
K-562 leukemia = test system: K-562 leukemia
NCI-H460 lung = test system: NCI-H460 lung
NCI/ADR-RES ovarian = test system: NCI/ADR-RES ovarian
SF-539 CNS = test system: SF-539 CNS
CCRF-CEM leukemia = test system: CCRF-CEM leukemia
MCF7 breast = test system: MCF7 breast
786-0 renal = test system: 786-0 renal
MOLT-4 leukemia = test system: MOLT-4 leukemia

O=C(COc1ccc(NC(=O)Nc2ccccc2)cc1)N=Nc1c(O)[nH]c2ccc([N+](=O)[O-])cc12
GI50 (SNB-19 CNS): 1.98 µM | TGI (SNB-19 CNS): 4.55 µM | GI50 (OVCAR-8 ovarian): 1.89 µM | TGI (OVCAR-8 ovarian): 3.75 µM | GI50 (OVCAR-3 ovarian): 1.66 µM | TGI (OVCAR-3 ovarian): 3.18 µM | GI50 (SR leukemia): 2.65 µM | TGI (SR leukemia): 6.32 µM | GI50 (LOX IMVI melanoma): 1.7 µM | TGI (LOX IMVI melanoma): 3.15 µM | GI50 (SK-MEL-28 melanoma): 1.79 µM | TGI (SK-MEL-28 melanoma): 3.65 µM | GI50 (SN12C renal): 1.65 µM | TGI (SN12C renal): 3.3 µM | GI50 (MDA-MB-435): 1.71 µM | TGI (MDA-MB-435): 3.26 µM | GI50 (TK-10 renal): 17.3 µM | TGI (TK-10 renal): 38.4 µM | GI50 (SK-MEL-5 melanoma): 2.15 µM | TGI (SK-MEL-5 melanoma): 5.09 µM | GI50 (MALME-3M melanoma): 1.63 µM | TGI (MALME-3M melanoma): 3.07 µM | GI50 (SK-MEL-2 melanoma): 1.76 µM | TGI (SK-MEL-2 melanoma): 3.46 µM | GI50 (MDA-MB-468 breast): 1.85 µM | TGI (MDA-MB-468 breast): 3.31 µM | GI50 (UACC-257 melanoma): 2.01 µM | TGI (UACC-257 melanoma): 4.91 µM | GI50 (NCI-H522 lung): 1.61 µM | TGI (NCI-H522 lung): 3.15 µM | GI50 (U251 CNS): 1.71 µM | TGI (U251 CNS): 3.12 µM | GI50 (M14 melanoma): 2.86 µM | TGI (M14 melanoma): 11.3 µM | GI50 (UO-31 renal): > 100 µM | TGI (UO-31 renal): > 100 µM | GI50 (PC-3 prostate): 2.05 µM | TGI (PC-3 prostate): 4.76 µM | GI50 (SF-268 CNS): 1.91 µM | TGI (SF-268 CNS): 4.08 µM | GI50 (HCT-116 colon): 1.72 µM | TGI (HCT-116 colon): 3.13 µM | GI50 (HCC-2998 colon): 2.24 µM | TGI (HCC-2998 colon): 5.15 µM | GI50 (A498 renal): 11.4 µM | TGI (A498 renal): 32.5 µM | GI50 (UACC-62 melanoma): 1.83 µM | TGI (UACC-62 melanoma): 3.92 µM | GI50 (DU-145 prostate): 3.88 µM | TGI (DU-145 prostate): > 100 µM | GI50 (COLO 205 colon): 1.94 µM | TGI (COLO 205 colon): 3.55 µM | GI50 (HS 578T breast): 2.09 µM | TGI (HS 578T breast): 5.8 µM | GI50 (KM12 colon): 1.95 µM | TGI (KM12 colon): 3.96 µM | GI50 (OVCAR-5 ovarian): 4.11 µM | TGI (OVCAR-5 ovarian): > 100 µM | GI50 (CAKI-1 renal): 47.7 µM | TGI (CAKI-1 renal): > 100 µM | GI50 (A549 NSCLC): > 100 µM | TGI (A549 NSCLC): > 100 µM | GI50 (HOP-92 NSCLC): 1.76 µM | TGI (HOP-92 NSCLC): 3.39 µM | GI50 (NCI-H23 lung): 2.09 µM | TGI (NCI-H23 lung): 4.27 µM | GI50 (RPMI-8226 leukemia): 5.39 µM | TGI (RPMI-8226 leukemia): > 100 µM | GI50 (T-47D breast): 1.71 µM | TGI (T-47D breast): 3.6 µM | GI50 (ACHN renal): 29.3 µM | TGI (ACHN renal): > 100 µM | GI50 (IGROV1 ovarian): 3.43 µM | TGI (IGROV1 ovarian): 15.5 µM | GI50 (BT-549 breast): 1.89 µM | TGI (BT-549 breast): 5.37 µM | GI50 (OVCAR-4 ovarian): 1.84 µM | TGI (OVCAR-4 ovarian): 3.96 µM | GI50 (HOP-62 NSCLC): 2.42 µM | TGI (HOP-62 NSCLC): 7.08 µM | GI50 (SK-OV-3 ovarian): 5.45 µM | TGI (SK-OV-3 ovarian): 21 µM | GI50 (RXF 393 renal): 2.31 µM | TGI (RXF 393 renal): 6.01 µM | GI50 (HCT-15 colon): 99.8 µM | TGI (HCT-15 colon): > 100 µM | GI50 (EKVX NSCLC): 5.02 µM | TGI (EKVX NSCLC): 45.7 µM | GI50 (SW-620 colon): 1.69 µM | TGI (SW-620 colon): 3.83 µM | GI50 (SF-295 CNS): 6.27 µM | TGI (SF-295 CNS): 32.8 µM | GI50 (HL-60(TB) leukemia): 8.08 µM | TGI (HL-60(TB) leukemia): > 100 µM | GI50 (MDA-MB-231 breast): 1.82 µM | TGI (MDA-MB-231 breast): 3.41 µM | GI50 (SNB-75 CNS): 1.46 µM | TGI (SNB-75 CNS): 3.39 µM | GI50 (NCI-H226 lung): 2.31 µM | TGI (NCI-H226 lung): 5.94 µM | GI50 (K-562 leukemia): 3.02 µM | TGI (K-562 leukemia): 7.65 µM | GI50 (NCI-H460 lung): 1.89 µM | TGI (NCI-H460 lung): 4.58 µM | GI50 (NCI/ADR-RES ovarian): > 100 µM | TGI (NCI/ADR-RES ovarian): > 100 µM | GI50 (SF-539 CNS): 1.67 µM | TGI (SF-539 CNS): 3.14 µM | GI50 (CCRF-CEM leukemia): 2.45 µM | TGI (CCRF-CEM leukemia): 6.17 µM | GI50 (MCF7 breast): 1.94 µM | TGI (MCF7 breast): 4.02 µM | GI50 (786-0 renal): 5.69 µM | TGI (786-0 renal): 23.8 µM | GI50 (MOLT-4 leukemia): 2.37 µM | TGI (MOLT-4 leukemia): 5.08 µM
